The test deals with Serotonin N-acetyltransferase (Ovis aries) (UniProt Q29495). Nature of the test: AANAT activity was measured using a spectrophotometric assay in which the enzymatic product CoASH concentration were determined indirectly by monitoring its reaction product with DTNB at 412nm. To be noted: pH 6.8.

This passage reports Ki results from BindingDB's records for doi:10.1016/S0045-2068(03)00081-6 (Johns Hopkins University School of Medicine, 2003).

Structures are written as SMILES. pKi: −log10 of the molar value.

Chain of Serotonin N-acetyltransferase (Ovis aries) (Q29495 whole entry, looked up): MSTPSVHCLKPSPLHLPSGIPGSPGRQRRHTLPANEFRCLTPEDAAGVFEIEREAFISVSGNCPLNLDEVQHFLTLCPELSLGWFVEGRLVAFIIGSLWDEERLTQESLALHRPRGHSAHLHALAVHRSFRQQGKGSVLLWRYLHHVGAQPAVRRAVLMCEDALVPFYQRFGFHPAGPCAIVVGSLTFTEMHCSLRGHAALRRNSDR

The term pKi denotes −log10 of the Ki, conventionally taken in molar units. As for `CC(C)(COP(=O)(O)OP(=O)(O)OC[C@H]1OC(n2cnc3c(N)ncnc32)[C@@H](O)[C@@H]1OP(=O)(O)O)[C@@H](O)C(=O)NCCC(=O)NCCSCCCNCCc1c[nH]c2ccccc12` (some centres undefined) [AANAT bisubstrate analog, 7], the pKi is 5.23. The value for `CC(C)(COP(=O)(O)OP(=O)(O)OC[C@H]1OC(n2cnc3c(N)ncnc32)[C@@H](O)[C@@H]1OP(=O)(O)O)[C@@H](O)C(=O)NCCC(=O)NCCSCCCc1c[nH]c2ccccc12` (some centres undefined) [AANAT bisubstrate analog, 6] was 6.08.

`CC(C)(COP(=O)(O)OP(=O)(O)OC[C@H]1OC(n2cnc3c(N)ncnc32)[C@@H](O)[C@@H]1OP(=O)(O)O)[C@@H](O)C(=O)NCCC(=O)NCCSCCCCc1c[nH]c2ccccc12` (some centres undefined) [AANAT bisubstrate analog, 5]: the pKi is 6.51. With `CC(C)(COP(=O)(O)OP(=O)(O)OC[C@H]1OC(n2cnc3c(N)ncnc32)[C@@H](O)[C@@H]1OP(=O)(O)O)[C@@H](O)C(=O)NCCC(=O)NCCSCCCCCc1c[nH]c2ccccc12` (some centres undefined) [AANAT bisubstrate analog, 4] the figure was 6.44.
